Results published in US20020028472A1, “Methods for identifying inhibitors of the anaphase promoting complex” (priority 2000, published 2002).

Target: T1, APC11 fused to Maltose Binding Protein (MBP-APC11) (Homo sapiens, UniProt Q9NYG5)
T1 construct: obtained by inserting the APC11 coding region into the commercially available vector pMAL, New England Biolabs; made in house; host or cells: E. coli, grown with 1 mM ZnCl2; purified on amylose resin
Assay: FRET assay of APC11-mediated formation of multiubiquitin chains
Format: biochemical
Details: DTT titrated 0 to 30 mM; 60 min at 37° C.; E1 UBA1, E2 HIS-UBCH5b; FRET europium/allophycocyanin

T1 sequence (Q9NYG5 whole entry, the tested form may be a part): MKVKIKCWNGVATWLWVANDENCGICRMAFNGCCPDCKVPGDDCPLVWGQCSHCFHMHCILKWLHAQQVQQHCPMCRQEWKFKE

inhibition of the APC11-mediated formation of multiubiquitin chains: inhibition
Compound: O[C@H](CS)[C@H](O)CS (racemic) [DTT, dithiothreitol]
